US20080280951A1, “Salt Il” (ASTRAZENECA AB, priority 2005, published 2008)
Read-outs that look alike come from different tables or passages of the source.

Assays:
[1] = Hygroscopicity determination (vapor sorption); format: physicochemical; settings: room temperature (25° C.)
Description: Hygroscopicity Determination
The weight change of a test sample at room temperature (25° C.) and at 80% relative humidity (RH) was investigated by recording adsorption-desorption isotherms using a symmetric vapor-sorption analyser SGA-100 (VTI Corporation) using different methods, the main features being: a single sorption/desorption cycle from 0 to 90% RH in 10% RH steps with a dm/dt trigger value of 0.002%, (dm/dt=change in mass with time—when the balance stability is within this value the next step is automatically started, however, if those conditions are not achieved there is a default maximum time for each step of 6 hours). Approximately 2 to 10 mg of the test sample was placed in a sample holder and exposed to different relative humidities.

[2] = Estimated solubility of the salt in organic solvents; format: physicochemical; settings: organic solvent or mixture
Description: (a) Form B was prepared by dissolving, in a vial, 20% w of a sample of the furoate salt prepared by the method of Example 1(b) (Form A) in a solvent such as ethanol (16 mg/ml) or 2-butanol (8 mg/ml). The figures in brackets indicate the estimated solubility of the salt in these solvents. The vial was then sealed and the suspension was homogenised at ambient temperature (20° C.) using a magnet. Stirring and temperature were maintained for a period of at least 7 days after which time a sample of the material obtained was dried and tested by XRPD. XRPD confirmed that there had been complete transformation of Form A to Form B.

[3] = target: T1, human CCR1 (Homo sapiens, UniProt P32246); experiment: Human CCR1 binding assay; settings: HEK-CCR1 membranes, displacement of 33 pM [125I] MIP-1α
T1 construct: expressed in transfected cells; membrane preparation
T1 sequence (P32246 1-355): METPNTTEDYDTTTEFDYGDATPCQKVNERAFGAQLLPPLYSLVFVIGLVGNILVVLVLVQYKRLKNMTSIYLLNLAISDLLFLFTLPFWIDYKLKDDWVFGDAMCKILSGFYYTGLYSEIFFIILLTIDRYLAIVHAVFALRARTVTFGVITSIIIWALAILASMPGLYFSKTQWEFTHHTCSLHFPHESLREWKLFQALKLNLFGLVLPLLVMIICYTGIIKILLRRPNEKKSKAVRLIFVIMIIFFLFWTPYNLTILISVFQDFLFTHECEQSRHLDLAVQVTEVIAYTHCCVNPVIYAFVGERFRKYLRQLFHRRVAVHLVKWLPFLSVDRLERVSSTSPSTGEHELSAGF
Description: HEK293 cells, from ECACC, stably expressing recombinant human CCR1 (HEK-CCR1) were used to prepare cell membranes containing CCR1. The membranes were stored at −70° C. The concentration of membranes of each batch was adjusted to 10% specific binding of 33 pM [^125I] MIP-1α.
100 μL of HEK-CCR1 membranes diluted in assay buffer pH 7.4 (137 mM NaCl (Merck, Cat No 1.06404), 5.7 mM Glucose (Sigma, Cat No G5400), 2.7 mM KCl (Sigma, Cat No P-9333), 0.36 mM NaH2PO4×H2O (Merck, Cat No 1.06346), 10 mM HEPES (Sigma, Cat No H3375), 0.1% (w/v) Gelatine (Sigma, Cat No G2625)) with the addition of 17500 units/L Bacitracin (Sigma, Cat No B 1025) were added to each well of the 96 well filter plate (0.45 μm opaque Millipore cat no MHVB N4550). […] 12 μl assay buffer with 10% DMSO was added to certain wells (without compound) to detect maximal binding (B0).
12 μL [^125I] MIP-1α, diluted in assay buffer to a final concentration in the wells of 33 pM, was added to all wells. The plates with lid were then incubated for 1.5 hrs at room temperature. After incubation the wells were emptied by vacuum filtration (MultiScreen Resist Vacuum Manifold system, Millipore) and washed once with 200 μl assay buffer. After the wash, all wells received an addition of 50 μL of scintillation fluid (OptiPhase “Supermix”, Wallac Oy, Turko, Finland). Bound [^125I] MIP-1α was measured using a Wallac Trilux 1450 MicroBeta counter. […]

CC(=O)Nc1ccc(O)cc1OC[C@@](C)(O)CNC1CCN(Cc2ccc(Cl)cc2)CC1 [Form A, N-{2-[((2S)-3-{[1-(4-chlorobenzyl)piperidin-4-yl]amino}-2-hydroxy-2-methylpropyl)oxy]-4-hydroxyphenyl}acetamide furoate]
Water Uptake (% w/w) at 80% RH [1]: <0.8 % w/w | solubility ([2]; solvent 2-butanol, read-out: estimated solubility of the salt in 2-butanol): 8 mg/mL | solubility ([2]; solvent ethanol, read-out: estimated solubility of the salt in ethanol): 16 mg/mL

CC(=O)Nc1ccc(O)cc1OC[C@@](C)(O)CNC1CCN(Cc2ccc(Cl)cc2)CC1 [N-{2-[((2S)-3-{[1-(4-chlorobenzyl)piperidin-4-yl]amino}-2-hydroxy-2-methylpropyl)oxy]-4-hydroxyphenyl}acetamide ditrifluoroacetate]
IC50 [3]: < 50 nM
